System: yeast genes (level of expressed mRNA)
Test: DNA chip analysis of expressed mRNA of yeast genes after 2 h culture with a toxic chemical substance
Assay type: cell-based, Saccharomyces cerevisiae S288C
Settings: for The level of expressed mRNA in the presence of chemical substance/ (ratio to absence of chemical substance): stress protein genes, DNA chip
Method: Yeast (Saccharomyces cerevtisiae S288C (α SUC2mal mel gap2 CUP1)) were cultured at 25° C. on YPD medium (yeast extract 1%, polypepton 2%, glucose 2%). One of toxic chemical substances was added to the cell at logarithmic growth phase, and the cell was further cultured for two hours. Cell was cultured without any chemical substance in the same condition, and was used as control. Concentrations of the chemical substances were defined to inhibit the growth of the yeast but not lead to death.
After the completion of cultivation, the culture was centrifuged to collect the cells. To the cells, sodium acetate buffer (50 mM sodium acetate, 10 mM EDTA, 1% SDS) was added, and the mixture was shaken at 65° C. for five minutes, followed by returning to room temperature, and obtaining the supernatant, which procedure was repeated two times. To the supernatant, ½ amount of a solution of phenol/chloroform was added, and the mixture was centrifuged to give a supernatant, which was added with an equal amount of chloroform, and the mixture was centrifuged to give a supernatant. To the supernatant, an equal amount of isopropanol containing 0.3 M sodium acetate was added, and the mixture was allowed to stand at room temperature for 30 minutes, after which the mixture was centrifuged to give a sediment of the whole RNAs. Seventy % ethanol was added to the sediment, and the mixture was again centrifuged to give a sediment, which was then dried and dissolved in water. mRNA was isolated from the whole RNAs as followings. In view of the fact that a poly A chain is attached to the 3′ terminus of mRNA, a polynucleotide having a poly T structure which was immobilized on the surface of latex beads was used to trap the mRNA, and then the mRNA was washed and eluted with spine column (Oligotex-dT30<Super>mRNA Purification Kit, Takara). Reverse transcription of the mRNA was conducted with a reverse transcriptase (Super Script II Reverse Transcriptase; catalogue No. 18064-014, GibcoBRL) using fluorescence-labeled nucleotides to give cDNAs that were introduced with Cy3-dUTP or Cy5-dUTP during the reverse transcription.
The labeled cDNAs were dissolved in TE buffer (10 mM Tris-HCl/1 mM EDTA, pH8.0), and the solution was dropped on the DNA chip containing the whole genes of yeast (DNA Chip Research Inc. Japan) so that the cDNAs were hybridized on the DNA chip at 65° C. for over 12 hours. The fluoresces intensity of the DNA chip was read with a scanner, and the ratio relative to the fluorescence intensity resulting from the absence of chemical substance was estimated as the following, which is shown in Tables 1 to 9: [formula]
In the Tables, “Intensity” indicated in the rightmost column is a value of the level of expressed mRNA of each gene in control cells as divided by the average level of the expressions of the whole genes.

Question: How did the “The level of expressed mRNA in the presence of chemical substance/absence: YOR267C” value (gene YOR267C) turn out when `C[S+](C)[O-]` [(15), dimethylsulfoxide] was run?
Answer: 1.3

Question: And the “The level of expressed mRNA in the presence of chemical substance/absence: YOR325W” value (gene YOR325W)?
Answer: 0.7

Question: And the “level of expressed mRNA in the presence of chemical substance/in its absence” value (“level … of chemical substance/in its absence” below) (gene YOR336W)?
Answer: 0.6

Question: What about the “level … of chemical substance/in its absence” value (gene YOR344C) of the same molecule?
Answer: 0.7

Question: And the “level … of chemical substance/in its absence” value (gene YOR347C)?
Answer: 2.0

Question: What about the “The level of expressed mRNA in the presence of chemical substance/absence: YPL005W” value (gene YPL005W) of the same molecule?
Answer: 1.2

Question: What about the “level … of chemical substance/in its absence” value (gene YPL017C) of the same molecule?
Answer: 1.0

Question: And the “The level of expressed mRNA in the presence of chemical substance / the level in the absence of chemical substance, yeast gene YPL107W” value (gene YPL107W, DNA chip fluorescence ratio to control without chemical, 2 hours culture with chemical, growth-inhibiting non-lethal concentration)?
Answer: 0.7

Question: And the “The level of expressed mRNA in the presence of chemical substance / the level in the absence of chemical substance, yeast gene YPL138C” value (gene YPL138C, DNA chip fluorescence ratio to control without chemical, 2 hours culture with chemical, growth-inhibiting non-lethal concentration)?
Answer: 2.7

Question: What about the “The level of expressed mRNA in the presence of chemical substance/absence: YPL150W” value (gene YPL150W) of the same molecule?
Answer: 1.1

Question: And the “The level of expressed mRNA in the presence of chemical substance/absence: YPL151C” value (gene YPL151C)?
Answer: 1.8

Question: What about the “The level of expressed mRNA in the presence of chemical substance/absence: YPL152W” value (gene YPL152W) of the same molecule?
Answer: 2.3

Question: And the “The level of expressed mRNA in the presence of chemical substance/absence: YPL168W” value (gene YPL168W)?
Answer: 0.8

Question: What about the “The level of expressed mRNA in the presence of chemical substance/absence: YPL180W” value (gene YPL180W) of the same molecule?
Answer: 0.7

Question: What about the “The level of expressed mRNA in the presence of chemical substance/absence: YPL188W” value (gene YPL188W) of the same molecule?
Answer: 0.8

Question: And the “The level of expressed mRNA in the presence of chemical substance/absence: YPL221W” value (gene YPL221W)?
Answer: 1.0

Question: What about the “The level of expressed mRNA in the presence of chemical substance/absence: YPL225W” value (gene YPL225W) of the same molecule?
Answer: 0.9

Question: What about the “The level of expressed mRNA in the presence of chemical substance/absence: YPL249C” value (gene YPL249C) of the same molecule?
Answer: 1.0

Question: What about the “The level of expressed mRNA in the presence of chemical substance/absence: YPL260W” value (gene YPL260W) of the same molecule?
Answer: 1.3

Question: What about the “level … of chemical substance/in its absence” value (gene YPL265W) of the same molecule?
Answer: 1.2

Question: And the “level … of chemical substance/in its absence” value (gene YPR006C)?
Answer: 0.7

Question: What about the “level … of chemical substance/in its absence” value (gene YPR026W) of the same molecule?
Answer: 3.1

Question: What about the “The level of expressed mRNA in the presence of chemical substance/absence: YPR049C” value (gene YPR049C) of the same molecule?
Answer: 1.5

Question: And the “The level of expressed mRNA in the presence of chemical substance/absence: YPR061C” value (gene YPR061C)?
Answer: 0.4

Question: What about the “The level of expressed mRNA in the presence of chemical substance/absence: YPR093C” value (gene YPR093C) of the same molecule?
Answer: 0.8

Question: What about the “The level of expressed mRNA in the presence of chemical substance/absence: YPR146C” value (gene YPR146C) of the same molecule?
Answer: 0.9

Question: What about the “The level of expressed mRNA in the presence of chemical substance/absence: YPR148C” value (gene YPR148C) of the same molecule?
Answer: 1.7

Question: What about the “The level of expressed mRNA in the presence of chemical substance/absence: YPR150W” value (gene YPR150W) of the same molecule?
Answer: 0.9

Question: What about the “The level of expressed mRNA in the presence of chemical substance/absence: YPR158W” value (gene YPR158W) of the same molecule?
Answer: 0.9

Question: And the “The level of expressed mRNA in the presence of chemical substance/absence: YPR169W” value (gene YPR169W)?
Answer: 0.9

Question: What about the “The level of expressed mRNA in the presence of chemical substance/absence: YPR172W” value (gene YPR172W) of the same molecule?
Answer: 1.5

Question: What about the “The level of expressed mRNA in the presence of chemical substance/absence: YPR174C” value (gene YPR174C) of the same molecule?
Answer: 1.2

Question: What about the “The level of expressed mRNA in the presence of chemical substance/The level of expressed mRNA in the absence of chemical substance” value (yeast gene YAR010C) of the same molecule?
Answer: 1.8

Question: And the “The level of expressed mRNA in the presence of chemical substance/The level of expressed mRNA in the absence of chemical substance” value (yeast gene YBL005W-A)?
Answer: 0.9

Question: And the “The level of expressed mRNA in the presence of chemical substance/ (ratio to absence), gene YBL038W” value (yeast gene YBL038W, mitochondria-located protein genes, 2 h culture with chemical)?
Answer: 0.7

Question: And the “The level of expressed mRNA in the presence of chemical substance/The level of expressed mRNA in the absence of chemical substance” value (yeast gene YBL041W)?
Answer: 1.3

Question: What about the “The level of expressed mRNA in the presence of chemical substance/The level of expressed mRNA in the absence of chemical substance” value (yeast gene YBL043W) of the same molecule?
Answer: 1.8

Question: And the “The level of expressed mRNA in the presence of chemical substance/The level of expressed mRNA in the absence of chemical substance” value (yeast gene YBL078C)?
Answer: 2.5

Question: And the “The level of expressed mRNA in the presence of chemical substance/ (ratio to absence of chemical substance)” value (yeast gene YBL093C)?
Answer: 0.5

Question: And the “The level of expressed mRNA in the presence of chemical substance/ (in its absence), gene YBR036C” value (yeast gene YBR036C, ratio of DNA chip fluorescence intensity to that without chemical substance)?
Answer: 1.5

Question: What about the “The level of expressed mRNA in the presence of chemical substance/ (ratio to absence of chemical substance)” value (yeast gene YBR044C) of the same molecule?
Answer: 0.9

Question: And the “The level of expressed mRNA in the presence of chemical substance/ (ratio to absence), gene YBR122C” value (yeast gene YBR122C, mitochondria-located protein genes, 2 h culture with chemical)?
Answer: 0.7

Question: And the “The level of expressed mRNA in the presence of chemical substance/The level of expressed mRNA in the absence of chemical substance” value (yeast gene YBR214W)?
Answer: 5.1

Question: What about the “The level of expressed mRNA in the presence of chemical substance/ (ratio to absence), gene YBR251W” value (yeast gene YBR251W, mitochondria-located protein genes, 2 h culture with chemical) of the same molecule?
Answer: 0.8

Question: And the “The level of expressed mRNA in the presence of chemical substance/ (in its absence), gene YBR298C” value (yeast gene YBR298C, ratio of DNA chip fluorescence intensity to that without chemical substance)?
Answer: 0.2

Question: And the “The level of expressed mRNA in the presence of chemical substance/The level of expressed mRNA in the absence of chemical substance” value (yeast gene YCL020W)?
Answer: 2.5

Question: And the “The level of expressed mRNA in the presence of chemical substance/The level of expressed mRNA in the absence of chemical substance” value (yeast gene YCL027W)?
Answer: 3.6

Question: And the “The level of expressed mRNA in the presence of chemical substance/The level of expressed mRNA in the absence of chemical substance” value (yeast gene YCR004C)?
Answer: 0.8

Question: And the “The level of expressed mRNA in the presence of chemical substance/ (ratio to absence), gene YCR046C” value (yeast gene YCR046C, mitochondria-located protein genes, 2 h culture with chemical)?
Answer: 1.4

Question: What about the “The level of expressed mRNA in the presence of chemical substance/The level of expressed mRNA in the absence of chemical substance” value (yeast gene YCR071C) of the same molecule?
Answer: 1.1

Question: What about the “The level of expressed mRNA in the presence of chemical substance/ (ratio to absence), gene YCR083W” value (yeast gene YCR083W, mitochondria-located protein genes, 2 h culture with chemical) of the same molecule?
Answer: 1.0

Question: And the “The level of expressed mRNA in the presence of chemical substance/ (ratio to absence of chemical substance)” value (yeast gene YCR083W)?
Answer: 1.0

Question: What about the “The level of expressed mRNA in the presence of chemical substance/The level of expressed mRNA in the absence of chemical substance” value (yeast gene YCR088W) of the same molecule?
Answer: 2.8

Question: What about the “The level of expressed mRNA in the presence of chemical substance/The level of expressed mRNA in the absence of chemical substance” value (yeast gene YDL008W) of the same molecule?
Answer: 0.7

Question: And the “The level of expressed mRNA in the presence of chemical substance/ in its absence, gene YDL067C” value (yeast gene YDL067C, energy system protein genes, 2 h culture with the chemical, ratio to control without chemical)?
Answer: 0.7

Question: And the “The level of expressed mRNA in the presence of chemical substance/ (ratio to absence), gene YDL067C” value (yeast gene YDL067C, mitochondria-located protein genes, 2 h culture with chemical)?
Answer: 0.7

Question: What about the “The level of expressed mRNA in the presence of chemical substance/ in its absence, gene YDL078C” value (yeast gene YDL078C, energy system protein genes, 2 h culture with the chemical, ratio to control without chemical) of the same molecule?
Answer: 0.5

Source: US20050112573A1, “Method of detecting toxic substance” (priority 2001, published 2005)
